From patent US20220288228A1, “METHODS OF CANCER TREATMENT BY DELIVERY OF siRNAs AGAINST BCLXL AND MCL1 USING A POLYPEPTIDE NANOPARTICLE” (Sirnaomics, Inc., priority 2021, published 2022)

Columns and labels:
BCLxL = BCLxL (Homo sapiens, UniProt Q07817); details: consequence of its inhibition of BCLxL; cited from earlier work
FaDu H&N cancer cells = experiment: Sensitivity of FaDu cells to cisplatin with siRNAs; format: cell-based
Description: BCLxL and MCL1 siRNAs were mixed together in Lipofectamine RNAiMax and used to transfect FaDu H&N cancer cells. Final combined siRNA concentrations of 0.05 nM, 0.15 nM and 0.45 nM were compared with the effect of a non-silencing (NS) siRNA administered at the same concentrations. The effect of treatment with siRNAs on sensitivity to cisplatin (at 0-64 μM) also were evaluated.

BCLxL, sequence (Q07817 whole entry, species assumed): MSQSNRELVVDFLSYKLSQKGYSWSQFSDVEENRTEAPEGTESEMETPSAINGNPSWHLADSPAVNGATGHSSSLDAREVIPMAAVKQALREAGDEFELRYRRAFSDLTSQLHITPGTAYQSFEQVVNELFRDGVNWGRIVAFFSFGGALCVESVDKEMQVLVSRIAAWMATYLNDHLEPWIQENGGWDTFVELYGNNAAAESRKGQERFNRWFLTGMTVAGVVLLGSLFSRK

Compound	thrombocytopenia (BCLxL)	amount of cisplatin required to cause 100% inhibition of the tumor cell viability (FaDu H&N cancer cells; in the presence of 0.45 nM NS siRNA) [µM]	amount of cisplatin required to cause 100% inhibition of the tumor cell viability (FaDu H&N cancer cells; in the presence of 0.45 nM of BCLxL/MCL1 siRNAs) [µM]
CC1(C)CCC(c2ccc(Cl)cc2)=C(CN2CCN(c3ccc(C(=O)NS(=O)(=O)c4ccc(N[C@H](CCN5CCOCC5)CSc5ccccc5)c(S(=O)(=O)C(F)(F)F)c4)cc3)CC2)C1 [ABT263]	induces thrombocytopenia	–	–
N.N.[Cl][Pt][Cl] [cisplatin]	–	~32	< 1
